Measurements as given in US11918590B2 (Intas Pharmaceuticals Ltd., priority 2021, dated 2024).
In brackets after ≈: the same amount, converted by molar mass. Where two headings read alike, the source gives them in different places.

What was measured:
[1] = Solubility study of clozapine at various pH and solvent; type: physicochemical
[2] = cited from earlier work
[3] = pH 4.0 to 4.5 of Acetate buffer

Solubility ([1]; 0.1N Hydrochloric acid) [µg/mL] | Solubility [1, 3] [µg/mL] | Solubility ([1]; phosphate buffer, pH 6.8, aqueous buffer, thermodynamic from solid, pH 6.8 of Phosphate buffer, read-out: Solubility) [µg/mL] | Solubility ([1]; purified water, water, thermodynamic from solid, Purified Water, read-out: Solubility) [µg/mL] | Solubility ([1]; Purified Water) [µg/mL] | Solubility ([1]; pH 6.8 of Phosphate buffer) [µg/mL] | Compound | solubility in water [2]
418 (≈ 1280 µM) | 730 (≈ 2230 µM) | 100 (≈ 306 µM) | 40 (≈ 122 µM) | – | – | CN1CCN(C2=Nc3cc(Cl)ccc3Nc3ccccc32)CC1 [Un-micronized, Clozapine] | –
– | – | – | – | – | – | CN1CCN(C2=Nc3cc(Cl)ccc3Nc3ccccc32)CC1 [Clozapine, 8-chloro-11-(4-methyl-1-piperazinyl)-5H-dibenzo [b,e][1,4] diazepine] | very slightly soluble in water
28727 (≈ 87900 µM) | 4773 (≈ 14600 µM) | – | – | 31 (≈ 94.9 µM) | 121 (≈ 370 µM) | CN1CCN(C2=Nc3cc(Cl)ccc3Nc3ccccc32)CC1 [Micronized, Clozapine] | –
